Reference: US9062066B2, “Anti-inflammatory compound having inhibitory activity against multiple tyrosine kinases and pharmaceutical composition containing same” (KOREA INSTITUTE OF SCIENCE AND TECHNOLOGY, priority 2010, dated 2015)
Read-outs that look alike come from different tables or passages of the source.

How the values were obtained:
[1] = molecular target: c-Src tyrosine kinase (Homo sapiens (Human), UniProt P12931); assay: in vitro c-Src tyrosine kinase inhibition (32P-ATP, poly(D4Y)n substrate); format: biochemical; details: 1 uM compound; read-out: % inhibition against c-Src
Sequence of c-Src tyrosine kinase (P12931 whole entry, looked up): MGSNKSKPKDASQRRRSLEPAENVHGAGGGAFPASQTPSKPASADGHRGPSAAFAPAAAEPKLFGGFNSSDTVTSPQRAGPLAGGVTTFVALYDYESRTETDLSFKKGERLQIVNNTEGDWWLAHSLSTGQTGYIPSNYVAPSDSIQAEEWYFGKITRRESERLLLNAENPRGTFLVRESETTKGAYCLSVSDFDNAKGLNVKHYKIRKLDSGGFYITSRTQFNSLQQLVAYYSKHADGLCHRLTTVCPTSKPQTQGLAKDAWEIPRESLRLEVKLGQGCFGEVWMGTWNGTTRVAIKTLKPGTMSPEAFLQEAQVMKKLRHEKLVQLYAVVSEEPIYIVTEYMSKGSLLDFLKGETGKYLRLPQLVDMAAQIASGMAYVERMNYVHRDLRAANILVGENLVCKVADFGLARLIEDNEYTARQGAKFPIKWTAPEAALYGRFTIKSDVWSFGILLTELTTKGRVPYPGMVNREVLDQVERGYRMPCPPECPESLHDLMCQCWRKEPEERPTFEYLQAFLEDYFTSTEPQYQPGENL

[2] = molecular target: Hck tyrosine kinase (Homo sapiens (Human), UniProt P08631); assay: in vitro Hck tyrosine kinase inhibition; format: biochemical; details: 1 uM compound; read-out: % inhibition against Hck
Sequence of Hck tyrosine kinase (P08631 whole entry): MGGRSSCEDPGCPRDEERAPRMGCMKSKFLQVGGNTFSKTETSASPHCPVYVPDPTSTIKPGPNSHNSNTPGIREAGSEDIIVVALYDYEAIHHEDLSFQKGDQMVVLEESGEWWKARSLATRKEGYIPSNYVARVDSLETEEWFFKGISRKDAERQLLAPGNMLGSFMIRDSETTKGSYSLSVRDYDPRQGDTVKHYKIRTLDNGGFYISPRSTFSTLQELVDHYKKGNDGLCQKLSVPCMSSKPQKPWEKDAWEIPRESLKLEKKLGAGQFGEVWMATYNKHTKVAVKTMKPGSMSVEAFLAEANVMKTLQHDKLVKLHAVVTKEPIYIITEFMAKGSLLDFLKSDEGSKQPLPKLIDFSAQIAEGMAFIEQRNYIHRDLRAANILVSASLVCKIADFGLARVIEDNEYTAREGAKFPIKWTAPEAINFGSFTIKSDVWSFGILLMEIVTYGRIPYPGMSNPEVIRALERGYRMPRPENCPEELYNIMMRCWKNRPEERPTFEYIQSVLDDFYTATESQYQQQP

[3] = molecular target: Fgr tyrosine kinase (Homo sapiens (Human), UniProt P09769); assay: in vitro Fgr tyrosine kinase inhibition; format: biochemical; details: 1 uM compound; read-out: % inhibition against Fgr
Sequence of Fgr tyrosine kinase (P09769 whole entry): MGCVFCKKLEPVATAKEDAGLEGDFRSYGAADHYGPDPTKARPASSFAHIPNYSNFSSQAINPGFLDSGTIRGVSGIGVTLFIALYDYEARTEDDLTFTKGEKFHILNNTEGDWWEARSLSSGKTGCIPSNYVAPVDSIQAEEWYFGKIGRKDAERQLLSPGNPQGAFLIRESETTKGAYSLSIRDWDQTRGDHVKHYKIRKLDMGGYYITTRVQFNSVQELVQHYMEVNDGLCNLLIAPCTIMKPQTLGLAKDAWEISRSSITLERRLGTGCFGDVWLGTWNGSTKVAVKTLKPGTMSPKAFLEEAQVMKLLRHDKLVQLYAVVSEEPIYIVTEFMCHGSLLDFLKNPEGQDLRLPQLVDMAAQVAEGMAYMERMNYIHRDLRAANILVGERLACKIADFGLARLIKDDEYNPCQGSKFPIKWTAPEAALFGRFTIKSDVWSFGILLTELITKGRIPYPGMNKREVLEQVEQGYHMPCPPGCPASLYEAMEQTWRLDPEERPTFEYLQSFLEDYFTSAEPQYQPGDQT

[4] = molecular target: Lyn tyrosine kinase (Homo sapiens (Human), UniProt P07948); assay: in vitro Lyn tyrosine kinase inhibition; format: biochemical; details: 1 uM compound; read-out: % inhibition against Lyn
Sequence of Lyn tyrosine kinase (P07948 whole entry, the tested form may be a part): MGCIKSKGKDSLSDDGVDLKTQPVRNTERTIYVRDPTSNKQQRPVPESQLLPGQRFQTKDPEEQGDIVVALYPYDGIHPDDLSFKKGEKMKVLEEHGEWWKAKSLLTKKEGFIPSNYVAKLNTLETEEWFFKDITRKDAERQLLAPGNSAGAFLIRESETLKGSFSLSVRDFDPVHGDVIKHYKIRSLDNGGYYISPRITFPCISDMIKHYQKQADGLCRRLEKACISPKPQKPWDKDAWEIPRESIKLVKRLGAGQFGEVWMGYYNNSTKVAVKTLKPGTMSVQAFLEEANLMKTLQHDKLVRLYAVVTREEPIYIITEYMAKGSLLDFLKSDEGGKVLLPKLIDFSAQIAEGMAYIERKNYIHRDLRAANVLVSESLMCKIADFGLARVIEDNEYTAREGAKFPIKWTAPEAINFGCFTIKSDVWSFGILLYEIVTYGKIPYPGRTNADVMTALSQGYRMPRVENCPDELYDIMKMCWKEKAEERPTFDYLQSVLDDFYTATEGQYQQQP

[5] = molecular target: DDR1 tyrosine kinase (Homo sapiens (Human), UniProt Q08345); assay: in vitro DDR1 tyrosine kinase inhibition (GST-fused kinase domain); format: biochemical; details: 1 uM compound; read-out: % inhibition against DDR1
Sequence of DDR1 tyrosine kinase (Q08345 610-905): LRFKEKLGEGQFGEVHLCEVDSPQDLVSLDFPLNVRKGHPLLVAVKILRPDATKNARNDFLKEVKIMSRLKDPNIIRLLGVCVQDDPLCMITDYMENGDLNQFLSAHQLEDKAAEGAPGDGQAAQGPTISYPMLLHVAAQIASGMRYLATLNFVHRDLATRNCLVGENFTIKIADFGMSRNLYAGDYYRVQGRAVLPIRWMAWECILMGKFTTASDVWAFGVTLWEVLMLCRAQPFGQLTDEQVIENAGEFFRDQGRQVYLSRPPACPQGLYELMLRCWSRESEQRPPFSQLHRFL

[6] = molecular target: DDR2 tyrosine kinase (Homo sapiens (Human), UniProt Q16832); assay: in vitro DDR2 tyrosine kinase inhibition (GST-fused kinase domain); format: biochemical; details: 1 uM compound; read-out: % inhibition against DDR2
Sequence of DDR2 tyrosine kinase (Q16832 563-849): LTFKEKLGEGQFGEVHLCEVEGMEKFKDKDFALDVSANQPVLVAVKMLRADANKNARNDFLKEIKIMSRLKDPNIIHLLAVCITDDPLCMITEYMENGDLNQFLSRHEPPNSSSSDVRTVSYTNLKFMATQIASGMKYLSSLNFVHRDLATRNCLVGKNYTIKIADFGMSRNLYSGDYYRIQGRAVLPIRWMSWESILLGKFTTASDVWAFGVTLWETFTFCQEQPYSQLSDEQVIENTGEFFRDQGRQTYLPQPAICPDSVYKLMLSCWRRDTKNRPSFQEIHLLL

[7] = tested on: TNF-α synthesis in J744A.1 macrophages; assay: inhibition of TNF-α synthesis in LPS-activated macrophages (ELISA); format: cell-based; details: Macrophage, read-out: Inhibition (%) of TNF-α synthesis
[8] = tested on: NO synthesis in J744A.1 macrophage; assay: inhibition of nitric oxide (NO) synthesis in LPS-activated macrophages (Griess reagent); format: cell-based; details: read-out: Inhibition (%) of NO synthesis
[9] = tested on: α-smooth muscle actin protein expression in skin fibroblast cells; assay: inhibition of α-smooth muscle actin expression in fibroblast activated by type I collagen and TGF-β1 (western blotting); format: cell-based, Balb/C mouse; details: Mus musculus, 0.5 uM compound, 10 ng/ml TGF-β1, 48 hours, type I collagen, read-out: Inhibition (%) of α-smooth muscle actin increase
From the text: When fibroblast, […] alpha smooth muscle cells are converted to myofibroblast by activation, one of characteristic features is that α-smooth muscle actin protein expression is increased. Also myoblast cells with the increased α-smooth muscle actin expression have a character of an increased migration. These phenomena appear together with the activation of inflammatory cells and the activated myoblast-type cells are known to contribute directly to the pathology of inflammatory diseases. […] In this experiment, the expression level of alpha smooth muscle actin can be quantificated by measuring the density of α-smooth muscle actin protein band with densitometer after developing the X-ray film of chemiluminescence signal in western blotting experiment.

[10] = tested on: mouse skin fibroblast; assay: inhibition of migration of activated fibroblast (scratch wound); format: cell-based; details: 0.5 uM compound, 10 ng/ml TGF-β1, 24 hours, read-out: Inhibition (%) of migration of activated fibroblast
Method: The straight line of regular width was made using a micro pipette tip for a scratch wound on the mono-layer culture, and then the culture was exchanged to DMEM medium and incubated with 10 ng/ml of TGF-β1 in cell culture incubator of 37° C. for 24 hours. The cultured cells were fixed using formalin and stained with crystal violet. Photo-pictures were taken at 100× magnification in five location selected randomly in the scratched wound site of each stained culture dish and then the number of the cells moved into the scratched wound area was counted and averaged.

[11] = tested on: oxazolone-induced skin inflammation of Balb/C mouse ears; assay: mouse skin inflammatory model induced by oxazolone (ear thickness); format: in vivo; details: 20 ul of 0.1% compound topical on ear, 36 hours after oxazolone
Method: The compounds of the present invention were evaluated for their effective anti-inflammatory activity using a skin inflammatory animal model of 8 weeks old Balb/C mouse ears induced by oxazolone. […] After 4 days, the thickness of ear was measured using a caliper for the thickness value of ear before the induction of inflammation. […] After 36 hours, the thickness of ear was measured for the increased thickness induced by inflammation. […] The average value was obtained in each group (n=4).

[12] = 10 μM compound, 100 ng/ml LPS, 6 hours

Compound | inhibition at 1 µM [1] [%] | inhibition at 1 µM [2] [%] | inhibition at 1 µM [3] [%] | inhibition at 1 µM [4] [%] | inhibition at 1 µM [5] [%] | inhibition at 1 µM [6] [%] | inhibition at 10 µM [7, 12] [%] | inhibition at 10 µM ([8]; 10 μM compound, LPS, 24 hours) [%] | inhibition at 0.5 µM [9] [%] | inhibition at 0.5 µM [10] [%] | Inhibition (%) of increase of ear thickness [11] [%] | inhibition at 10 µM ([7]; 6 h) [%] | inhibition at 10 µM ([8]; 24 h) [%]
Oc1cccc(Nc2ccnc3cc(-c4ccc(CN5CCCC5)cc4)sc23)c1 [LCB 03-0080, 3-(2-(4-(pyrrolidin-1-ylmethyl)phenyl)thieno[3,2-b]pyridin-7-ylamino)phenol] | > 60 | > 60 | > 60 | > 60 | > 80 | > 80 | – | – | 62 | 41 | 53 | 59 | 78
Oc1cccc(Nc2ncnc3cc(-c4ccc(CN5CCNCC5)o4)sc23)c1 [LCB 03-0090, 3-(6-(5-(piperazin-1-ylmethyl)furan-2-yl)thieno[3,2-d]pyrimidin-4-ylamino)phenol] | > 70 | > 70 | > 70 | > 70 | > 70 | > 70 | – | – | 44 | 26 | 56 | 63 | 90
Oc1cccc(Nc2ncnc3cc(-c4ccc(CN5CCOCC5)o4)sc23)c1 [LCB 03-0089, 3-(6-(5-(morpholinomethyl)furan-2-yl)thieno[3,2-d]pyrimidin-4-ylamino)phenol] | > 70 | > 70 | > 70 | > 70 | > 70 | > 70 | – | – | 25 | 19 | 59 | 71 | 86
Oc1cccc(Nc2ncnc3cc(-c4ccc(CN5CCCCC5)o4)sc23)c1 [LCB 03-0088, 3-(6-(5-(piperidin-1-ylmethyl)furan-2-yl)thieno[3,2-d]pyrimidin-4-ylamino)phenol] | > 70 | > 70 | > 70 | > 70 | > 90 | > 90 | – | – | 52 | 27 | 51 | 73 | 97
Cl.Oc1cccc(Nc2ncnc3cc(-c4cccc(CN5CCOCC5)c4)sc23)c1 [LCB 03-0066, 3-(6-(3-(morpholinomethyl)phenyl)thieno[3,2-d]pyrimidin-4-ylamino)phenol] | > 80 | > 80 | > 80 | > 80 | > 80 | > 80 | 93 | 87 | 75 | 54 | 67 | – | –
Oc1cccc(Nc2ncnc3cc(-c4ccc(CNC5CC5)cc4)sc23)c1 [LCB 03-0040] | > 80 | > 80 | > 80 | > 80 | > 80 | > 80 | 84 | 93 | 55 | 43 | 31 | – | –
CN1CCN(Cc2ccc(-c3cc4ncnc(Nc5cccc(O)c5)c4s3)s2)CC1 [LCB 03-0092, 3-(6-(5-((4-methylpiperazin-1-yl)methyl)thiophene-2-yl)thieno[3,2-d]pyrimidin-4-ylamino)phenol] | > 60 | > 60 | > 50 | > 60 | > 80 | > 80 | – | – | 37 | 28 | 47 | 64 | 90

Now from value to molecule, other results behind:

inhibition at 1 µM [1] [%] | inhibition at 1 µM [2] [%] | inhibition at 1 µM [3] [%] | inhibition at 1 µM [4] [%] | inhibition at 1 µM [5] [%] | inhibition at 1 µM [6] [%] | Compound | inhibition at 10 µM [7, 12] [%] | inhibition at 10 µM ([8]; 10 μM compound, LPS, 24 hours) [%] | inhibition at 0.5 µM [9] [%] | inhibition at 0.5 µM [10] [%] | Inhibition (%) of increase of ear thickness [11] [%] | inhibition at 10 µM ([7]; 6 h) [%] | inhibition at 10 µM ([8]; 24 h) [%]
> 80 | > 80 | > 80 | > 80 | > 80 | > 80 | Cl.Oc1cccc(Nc2ncnc3cc(-c4cccc(CN5CCCCC5)c4)sc23)c1 [LCB 03-0060, 3-(6-(3-(piperidin-1-ylmethyl)phenyl)thieno[3,2-d]pyrimidin-4-ylamino)phenol] | 78 | 93 | 65 | 42 | 66 | – | –
> 80 | > 80 | > 80 | > 80 | > 80 | > 80 | CC(C)CNCc1cccc(-c2cc3ncnc(Nc4cccc(O)c4)c3s2)c1.Cl [LCB 03-0067, 3-(6-(3-((isobutylamino)methyl)phenyl)thieno[3,2-d]pyrimidin-4-ylamino)phenol] | 83 | 85 | 49 | 33 | 54 | – | –
> 60 | > 60 | > 60 | > 60 | > 80 | > 80 | Oc1cccc(Nc2ccnc3cc(-c4ccc(CN5CCOCC5)cc4)sc23)c1 [LCB 03-0083, 3-(2-(4-(morpholinomethyl)phenyl)thieno[3,2-b]pyridin-7-ylamino)phenol] | 62 | 71 | 55 | 33 | 47 | – | –
< 20 | < 20 | < 20 | < 20 | < 20 | < 20 | CO[C@@H]1C[C@@H](CO)N(C(=O)c2cc3nccc(Nc4ccc5c(c4)cc(C)n5C(=O)NC4CC4)c3s2)C1 [Control compound 3, reference compound] | 19 | 21 | 8 | 11 | 22 | – | –
> 80 | > 80 | > 70 | > 80 | > 80 | > 80 | CCN(CC)Cc1ccc(-c2cc3ncnc(Nc4cccc(O)c4)c3s2)cc1 [LCB 03-0037] | 73 | 93 | 55 | 37 | 33 | – | –
> 80 | > 80 | > 80 | > 80 | > 80 | > 80 | CCN(CC)Cc1cccc(-c2cc3ncnc(Nc4cccc(O)c4)c3s2)c1.Cl [LCB 03-0063, 3-(6-(3-((diethylamino)methyl)phenyl)thieno[3,2-d]pyrimidin-4-ylamino)phenol] | 85 | 89 | 61 | 36 | 51 | – | –
> 80 | > 80 | > 80 | > 80 | > 80 | > 80 | CC(C)CNCc1ccc(-c2cc3ncnc(Nc4cccc(O)c4)c3s2)cc1 [LCB 03-0041] | 87 | 91 | 66 | 39 | 29 | – | –
